Test results: ChEMBL document CHEMBL1649315, “Extended-spectrum cephalosporinase in Acinetobacter baumannii” (Antimicrob Agents Chemother, 2010)
Converted amounts (≈) assume the structure as drawn.

Tests used:
Acinetobacter baumannii [1] = experiment: Antimicrobial activity against Acinetobacter baumannii expressing ESAC beta-lactamase by Etest method; type: functional
Acinetobacter baumannii [2] = experiment: Ratio of Kcat to Km for Acinetobacter baumannii ADC-33 beta-lactamase to Kcat to Km for Acinetobacter baumannii ADC-11 beta-lactamase
Escherichia coli [3] = experiment: Antimicrobial activity against Escherichia coli TOP10 harboring pADC-33 plasmid with entire blaAmpC gene by Etest method; type: functional
Acinetobacter baumannii [4] = experiment: Antimicrobial activity against Acinetobacter baumannii AYE expressing VEB-1 gene by Etest method; type: functional
Escherichia coli [5] = experiment: Antimicrobial activity against Escherichia coli TOP10 harboring pADC-11 plasmid with entire blaAmpC gene by Etest method; type: functional
Escherichia coli [6] = experiment: Antimicrobial activity against Escherichia coli TOP10 harboring pADC-33 plasmid carrying entire blaAmpC gene with alanine residue deletion at 215 position and R210P substitution by Etest method; type: functional
Escherichia coli [7] = experiment: Antimicrobial activity against Escherichia coli TOP10 harboring pADC-11 plasmid carrying entire blaAmpC gene with alanine residue insertion at 215 position by Etest method; type: functional
Escherichia coli [8] = experiment: Antimicrobial activity against Escherichia coli TOP10 harboring pADC-33 plasmid by Etest method; type: functional
Acinetobacter baumannii [9] = experiment: Antimicrobial activity against Acinetobacter baumannii KI by Etest method; type: functional
Acinetobacter baumannii [10] = experiment: Antimicrobial activity against Acinetobacter baumannii CIP70.10 by Etest method; type: functional
Escherichia coli [11] = experiment: Antimicrobial activity against Escherichia coli TOP10 harboring pADC-11 plasmid by Etest method; type: functional
Escherichia coli [12] = experiment: Antimicrobial activity against Escherichia coli TOP10 harboring pADC-33 plasmid with entire blaAmpC gene with alanine residue deletion at 215 position by Etest method; type: functional
Acinetobacter baumannii [13] = experiment: Antimicrobial activity against Acinetobacter baumannii beta-lactamase by Etest method; type: functional
Escherichia coli [14] = experiment: Antimicrobial activity against Escherichia coli TOP10 harboring pADC-50 plasmid by Etest method; type: functional
Escherichia coli [15] = experiment: Antimicrobial activity against Escherichia coli TOP10 harboring pTOPO plasmid by Etest method in presence of clavulanic acid; type: functional
Escherichia coli [16] = experiment: Antimicrobial activity against Escherichia coli TOP10 harboring pADC-11 plasmid carrying entire blaAmpC gene with alanine residue insertion at 215 position by Etest method in presence of clavulanic acid; type: functional
Escherichia coli [17] = experiment: Antimicrobial activity against Escherichia coli TOP10 harboring pADC-11 plasmid by Etest method in presence of clavulanic acid; type: functional
Acinetobacter baumannii [18] = experiment: Antimicrobial activity against Acinetobacter baumannii CIP70.10 by Etest method in presence of clavulanic acid; type: functional
Acinetobacter baumannii [19] = experiment: Antimicrobial activity against Acinetobacter baumannii KI by Etest method in presence of clavulanic acid; type: functional
Escherichia coli [20] = experiment: Antimicrobial activity against Escherichia coli TOP10 harboring pADC-33 plasmid carrying entire blaAmpC gene with alanine residue deletion at 215 position by Etest method in presence of clavulanic acid; type: functional
Escherichia coli [21] = experiment: Antimicrobial activity against Escherichia coli TOP10 harboring pADC-11 plasmid carrying entire blaAmpC gene with alanine residue deletion at 215 position and R210P substitution by Etest method in presence of clavulanic acid; type: functional
Acinetobacter baumannii [22] = experiment: Antimicrobial activity against Acinetobacter baumannii AYE expressing VEB-1 gene by Etest method in presence of clavulanic acid; type: functional
Escherichia coli [23] = experiment: Antimicrobial activity against Escherichia coli TOP10 harboring pADC-33 plasmid carrying entire blaAmpC gene with alanine residue deletion at 215 position and R210P substitution by Etest method in presence of clavulanic acid; type: functional
Escherichia coli [24] = experiment: Antimicrobial activity against Escherichia coli TOP10 harboring pADC-33 plasmid carrying entire blaAmpC gene by Etest method in presence of clavulanic acid; type: functional
Escherichia coli [25] = experiment: Antimicrobial activity against Escherichia coli TOP10 harboring pADC-11 plasmid carrying entire blaAmpC gene with alanine residue insertion at 215 position and R210P substitution by Etest method; type: functional
Escherichia coli [26] = experiment: Antimicrobial activity against Escherichia coli TOP10 harboring pTOPO plasmid by Etest method; type: functional
Escherichia coli [27] = experiment: Antimicrobial activity against Escherichia coli TOP10 harboring pADC-11 plasmid carrying entire blaAmpC gene by Etest method in presence of clavulanic acid; type: functional
Escherichia coli [28] = experiment: Antimicrobial activity against Escherichia coli TOP10 harboring pADC-33 plasmid by Etest method in presence of clavulanic acid; type: functional
Escherichia coli [29] = experiment: Antimicrobial activity against Escherichia coli TOP10 harboring pADC-50 plasmid by Etest method in presence of clavulanic acid; type: functional
Beta-lactamase ADC-33 = Beta-lactamase ADC-33 (Acinetobacter baumannii, UniProt B2ZTR6); experiment: Activity of Acinetobacter baumannii ADC-33 beta-lactamase
ADC-11 = ADC-11 (Acinetobacter baumannii, UniProt D6NSM8); experiment: Activity of Acinetobacter baumannii ADC-11 beta-lactamase
Acinetobacter baumannii [30] = experiment: Ratio of Kcat to Ki for Acinetobacter baumannii ADC-33 beta-lactamase to Kcat to Ki for Acinetobacter baumannii ADC-11 beta-lactamase

| Compound | kcat/Km (Acinetobacter baumannii [2]) [M⁻¹ s⁻¹] | MIC (Escherichia coli [3]) [µg/mL] | MIC (Acinetobacter baumannii [4]) [µg/mL] | MIC (Escherichia coli [5]) [µg/mL] | MIC (Escherichia coli [6]) [µg/mL] | MIC (Escherichia coli [7]) [µg/mL] | MIC (Escherichia coli [8]) [µg/mL] | MIC (Acinetobacter baumannii [9]) [µg/mL] | MIC (Acinetobacter baumannii [10]) [µg/mL] | MIC (Escherichia coli [11]) [µg/mL] | MIC (Escherichia coli [12]) [µg/mL] | MIC (Escherichia coli [14]) [µg/mL] | MIC (Escherichia coli [25]) [µg/mL] | further results |
| --- | --- | --- | --- | --- | --- | --- | --- | --- | --- | --- | --- | --- | --- | --- |
| CO/N=C(\C(=O)N[C@@H]1C(=O)N2C(C(=O)[O-])=C(C[N+]3(C)CCCC3)CS[C@H]12)c1csc(N)n1 | 2e+07 | 1 (≈ 2.08 µM) | > 256 | 0.125 (≈ 0.26 µM) | 0.125 (≈ 0.26 µM) | 0.5 (≈ 1.04 µM) | 0.125 (≈ 0.26 µM) | 256 (≈ 533 µM) | 1 (≈ 2.08 µM) | 0.032 (≈ 0.0666 µM) | 0.25 (≈ 0.52 µM) | 0.032 (≈ 0.0666 µM) | – | MIC (Acinetobacter baumannii [1]): 32 µg/mL (≈ 66.6 µM); MIC (Acinetobacter baumannii [13]): 2 µg/mL (≈ 4.16 µM) |
| CC(=O)OCC1=C(C(=O)O)N2C(=O)[C@@H](NC(=O)Cc3cccs3)[C@H]2SC1 | 500000 | – | – | – | – | – | – | – | – | – | – | – | – | – |
| O=C(Cc1cccs1)N[C@@H]1C(=O)N2C(C(=O)[O-])=C(C[n+]3ccccc3)CS[C@H]12 | 800000 | – | – | – | – | – | – | – | – | – | – | – | – | – |
| CC1(C)S[C@@H]2[C@H](NC(=O)[C@H](N)c3ccc(O)cc3)C(=O)N2[C@H]1C(=O)O [AMOXICILLIN] | – | > 256 | > 256 | > 256 | > 256 | > 256 | > 256 | > 256 | 32 (≈ 87.6 µM) | > 256 | > 256 | 256 (≈ 701 µM) | > 256 | MIC (Escherichia coli [15]): 2 µg/mL; MIC (Escherichia coli [16]): > 256 µg/mL; MIC (Escherichia coli [17]): 256 µg/mL; MIC (Acinetobacter baumannii [18]): 16 µg/mL; MIC (Acinetobacter baumannii [19]): 64 µg/mL; MIC (Escherichia coli [20]): > 256 µg/mL; MIC (Escherichia coli [21]): 256 µg/mL; MIC (Acinetobacter baumannii [22]): 128 µg/mL; MIC (Escherichia coli [23]): 256 µg/mL; MIC (Escherichia coli [24]): > 256 µg/mL; MIC (Escherichia coli [26]): 2 µg/mL (≈ 5.47 µM); MIC (Escherichia coli [27]): > 256 µg/mL; MIC (Escherichia coli [28]): > 256 µg/mL; MIC (Escherichia coli [29]): 256 µg/mL |
| C[C@H]1[C@H](NC(=O)/C(=N\OC(C)(C)C(=O)O)c2csc(N)n2)C(=O)N1S(=O)(=O)O [AZTREONAM] | – | 256 (≈ 588 µM) | > 256 | 2 (≈ 4.59 µM) | 2 (≈ 4.59 µM) | 16 (≈ 36.7 µM) | 8 (≈ 18.4 µM) | 256 (≈ 588 µM) | 8 (≈ 18.4 µM) | 0.094 (≈ 0.216 µM) | 6 (≈ 13.8 µM) | – | 256 (≈ 588 µM) | MIC (Acinetobacter baumannii [1]): > 256 µg/mL; Ki (Beta-lactamase ADC-33): 7 nM; Ki (ADC-11): 3000 nM; MIC (Acinetobacter baumannii [13]): 12 µg/mL (≈ 27.6 µM) |
| CO/N=C(\C(=O)N[C@@H]1C(=O)N2C(C(=O)O)=C(COC(C)=O)CS[C@H]12)c1csc(N)n1 [CEFOTAXIME] | – | > 256 | > 256 | 8 (≈ 17.6 µM) | 8 (≈ 17.6 µM) | 256 (≈ 562 µM) | 128 (≈ 281 µM) | > 256 | 8 (≈ 17.6 µM) | 0.5 (≈ 1.1 µM) | 16 (≈ 35.1 µM) | 0.5 (≈ 1.1 µM) | > 256 | Ki (Beta-lactamase ADC-33): 500 nM; kcat/Km (Acinetobacter baumannii [30]): 2e+07 M⁻¹ s⁻¹; MIC (Escherichia coli [26]): 0.047 µg/mL (≈ 0.103 µM); Ki (ADC-11): 2500 nM |

Further lines, with some results ahead:

| kcat/Km (Acinetobacter baumannii [2]) [M⁻¹ s⁻¹] | Compound | MIC (Escherichia coli [3]) [µg/mL] | MIC (Acinetobacter baumannii [4]) [µg/mL] | MIC (Escherichia coli [5]) [µg/mL] | MIC (Escherichia coli [6]) [µg/mL] | MIC (Escherichia coli [7]) [µg/mL] | MIC (Escherichia coli [8]) [µg/mL] | MIC (Acinetobacter baumannii [9]) [µg/mL] | MIC (Acinetobacter baumannii [10]) [µg/mL] | MIC (Escherichia coli [11]) [µg/mL] | MIC (Escherichia coli [12]) [µg/mL] | MIC (Escherichia coli [14]) [µg/mL] | MIC (Escherichia coli [25]) [µg/mL] | further results |
| --- | --- | --- | --- | --- | --- | --- | --- | --- | --- | --- | --- | --- | --- | --- |
| 1.3e+06 | CC1(C)S[C@@H]2[C@H](NC(=O)Cc3ccccc3)C(=O)N2[C@H]1C(=O)O | – | – | – | – | – | – | – | – | – | – | – | – | – |
| 500000 | CC1(C)S[C@@H]2[C@H](NC(=O)[C@H](N)c3ccccc3)C(=O)N2[C@H]1C(=O)O | – | – | – | – | – | – | – | – | – | – | – | – | – |
